Relative viability data for one cell line are collected here from the supplement of paper PMC10307832.

Holding throughout (assay): relative viability (nuclei count vs DMSO), 5 days (fraction); higher = more cells survive
Compound in test [1]: CC1=CC(=CC=C1)NC2=NC(=CS2)C3=CC=NC=C3 + CC(=O)c1c(C)c2cnc(Nc3ccc(N4CCNCC4)cn3)nc2n(C2CCCC2)c1=O [Palbociclib] (partner 0.5 µM)
An outline of the steps: (§1)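 For relative viability, nuclei counts in treated wells were divided by those in vehicle wells. Lung cancer cell lines had been pin-tool dosed in 1536-well plates the day after seeding and cultured for 5 days, then fixed and stained in one step (final 0.05% Triton X-100, 1% formaldehyde, 1 ug/ml Hoechst) and imaged at 4×. Doses were one drug alone or a fixed anchor-drug dose plus five library-drug doses (not always all listed) in √10 steps, and values are duplicate-plate medians.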

Compound in test [2]: CC1=CC(=CC=C1)NC2=NC(=CS2)C3=CC=NC=C3 + CCNC(=O)c1noc(-c2cc(C(C)C)c(O)cc2O)c1-c1ccc(CN2CCOCC2)cc1 [Luminespib] (partner 0.01 µM)
Summed up:
as §1

Compound in test [3]: CC1=CC(=CC=C1)NC2=NC(=CS2)C3=CC=NC=C3 + Cc1nc(NC(=O)N2CCC[C@H]2C(N)=O)sc1-c1ccnc(C(C)(C)C(F)(F)F)c1 [Alpelisib] (partner 2 µM)
Summed up: as §1

Compound in test [4]: CC1=CC(=CC=C1)NC2=NC(=CS2)C3=CC=NC=C3 + N=C(N)NC(=N)NCCc1ccccc1 [Phenformin] (partner 250 µM)
Summed up: as §1

As to UMC-11, the relative viability in test [1] (first compound 0.08 µM) is 0.339; in test [1] (first compound 0.253 µM), 0.311; in test [1] (first compound 0.8 µM), 0.305; in test [1] (first compound 2.53 µM), 0.334; in test [1] (first compound 8 µM), 0.313; in test [2] (first compound 0.08 µM), 1.01. The relative viability in test [2] (first compound 0.253 µM) was found to be 1.05; in test [2] (first compound 0.8 µM), 1.06; in test [2] (first compound 2.53 µM) it was 1.07; in test [2] (first compound 8 µM), 1.09; in test [3] (first compound 0.08 µM), 1.02; in test [3] (first compound 0.253 µM), 0.91. Also, the relative viability was determined as 0.993 in test [3] (first compound 0.8 µM); 0.993 in test [3] (first compound 2.53 µM); 1.06 in test [3] (first compound 8 µM); 0.314 in test [4] (first compound 0.08 µM); 0.298 in test [4] (first compound 0.253 µM); 0.32 in test [4] (first compound 0.8 µM). Also, the relative viability is 0.307 in test [4] (first compound 2.53 µM) and 0.349 in test [4] (first compound 8 µM).
